≈ marks a conversion by molar mass, not a printed value. Where “and” joins values, the source holds several entries; their conditions need not be identical. Identical values can stand only once.
Key:
[1] = Compound solubility in 100% DMSO
murine PGP [2] = target: T1, murine PGP (Mus musculus, UniProt Q8CHP8); test: SAR: CP1, CP2 and analogs on PGP phosphatase activity (PG); type: biochemical; design: His6 (N, cleaved yes); made in house; host or cells: Escherichia coli BL21 (DE3), pETM11, co-expressed with groES-groEL-tig; settings: for inhibition of mPGP activity at 40 µM CP compared to DMSO control (%): single experiments Exp #1-3
T1 sequence (Q8CHP8 1-321): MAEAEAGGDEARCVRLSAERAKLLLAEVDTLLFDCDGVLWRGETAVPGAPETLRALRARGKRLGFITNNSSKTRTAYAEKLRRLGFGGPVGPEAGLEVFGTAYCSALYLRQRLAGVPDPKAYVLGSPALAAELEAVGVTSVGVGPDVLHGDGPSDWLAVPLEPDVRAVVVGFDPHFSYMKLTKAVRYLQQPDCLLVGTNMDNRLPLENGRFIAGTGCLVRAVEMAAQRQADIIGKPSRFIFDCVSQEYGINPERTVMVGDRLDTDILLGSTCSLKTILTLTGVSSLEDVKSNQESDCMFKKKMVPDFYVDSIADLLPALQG

murine PGP [3] = target: T1, murine PGP

Row | solubility in 100% DMSO [1] | inhibition of mPGP activity at 40 µM CP compared to DMSO control (%) (murine PGP [2]) | mPGP activity in presence of CP relative to DMSO controls, mPGP on PG (norm.) (murine PGP [2]; CP log[M] -4.39794) | mPGP activity in presence of CP relative to DMSO controls, mPGP on PG (norm.) (murine PGP [2]; CP log[M] -4.69897) | mPGP activity in presence of CP relative to DMSO controls, mPGP on PG (norm.) (murine PGP [2]; CP log[M] -5) | mPGP activity in presence of CP relative to DMSO controls, mPGP on PG (norm.) (murine PGP [2]; CP log[M] -5.30103) | mPGP activity in presence of CP relative to DMSO controls, mPGP on PG (norm.) (murine PGP [2]; CP log[M] -5.60206) | mPGP activity in presence of CP relative to DMSO controls, mPGP on PG (norm.) (murine PGP [2]; CP log[M] -5.90309) | mPGP activity in presence of CP relative to DMSO controls, mPGP on PG (norm.) (murine PGP [2]; CP log[M] -6.20412) | mPGP activity in presence of CP relative to DMSO controls, mPGP on PG (norm.) (murine PGP [2]; CP log[M] -6.50515) | mPGP activity in presence of CP relative to DMSO controls, mPGP on PG (norm.) (murine PGP [2]; CP log[M] -6.80618) | mPGP activity in presence of CP relative to DMSO controls, mPGP on PG (norm.) (murine PGP [2]; CP log[M] -7.10721) | Compound | further results
1 | 10 mM (≈ 5.84 mg/mL) | 97.486% and 99.4924% and 100.275% | 0.02406 and 0.01842 and 0.02506 | 0.04813 and 0.03947 and 0.05013 | 0.08824 and 0.08421 and 0.08772 | 0.1631 and 0.1684 and 0.1604 | 0.2914 and 0.2711 and 0.2932 | 0.4679 and 0.4553 and 0.4662 | 0.6203 and 0.5816 and 0.584 | 0.7781 and 0.7842 and 0.7769 | 0.8663 and 0.8184 and 0.817 | 0.9358 and 0.8579 and 0.8521 | O=C(O)c1cc(Cc2ccc(NC(=O)c3ccccc3[N+](=O)[O-])c(C(=O)O)c2)ccc1NC(=O)c1ccccc1[N+](=O)[O-] [2B] | mPGP activity in presence of CP relative to DMSO controls, mPGP on PG (norm.) (murine PGP [2]; CP log[M] -7.40824): 0.9332 and 0.9316 and 0.9248; PGP inhibitory potency compared to parental compound (murine PGP [2]; PG dephosphorylation assay): slightly more potent than the parental compound
2 | – | 80.4469% and 79.9492% and 79.3956% | 0.2193 and 0.2518 and 0.2324 | 0.388 and 0.3967 and 0.3732 | 0.5639 and 0.5534 and 0.5023 | 0.6916 and 0.6556 and 0.5915 | 0.788 and 0.7767 and 0.6502 | 0.8578 and 0.8527 and 0.8404 | 0.853 and 0.8789 and 0.9014 | 0.9181 and 0.905 and 0.9155 | 0.9349 and 0.9264 and 0.946 | 1.002 and 0.9691 and 0.9624 | O=C(Cc1cccs1)Nc1ccc(Cc2ccc(NC(=O)Cc3cccs3)c(C(=O)O)c2)cc1C(=O)O [2C] | mPGP activity in presence of CP relative to DMSO controls, mPGP on PG (norm.) (murine PGP [2]; CP log[M] -4.09691): 0.1542 and 0.1663 and 0.1408
3 | 100 mM (≈ 63.1 mg/mL) | 43.2961% and 38.3249% and 35.989% | – | – | – | – | – | – | – | – | – | – | Cc1nnc(SCC(=O)Nc2ccc(Cc3ccc(NC(=O)CSc4nnc(C)s4)c(C(=O)O)c3)cc2C(=O)O)s1 [2E] | –
4 | 50 mM (≈ 25.3 mg/mL) | 93.8547% and 93.1472% and 91.7582% | 0.09632 and 0.08995 and 0.05602 | 0.1303 and 0.1085 and 0.126 | 0.1756 and 0.1746 and 0.1485 | 0.2578 and 0.2672 and 0.2745 | 0.4504 and 0.4206 and 0.395 | 0.5949 and 0.6032 and 0.5826 | 0.7592 and 0.7328 and 0.6807 | 0.8952 and 0.8386 and 0.8543 | 0.932 and 0.8836 and 0.7843 | 0.9207 and 0.918 and 0.9468 | O=C(Nc1ccc(Cc2ccc(NC(=O)c3cccs3)c(C(=O)O)c2)cc1C(=O)O)c1cccs1 [2D] | mPGP activity in presence of CP relative to DMSO controls, mPGP on PG (norm.) (murine PGP [2]; CP log[M] -7.40824): 0.9632 and 0.9206 and 0.9552

Second part, the molecule before the results:

Row | Compound | solubility in 100% DMSO [1] | inhibition of mPGP activity at 40 µM CP compared to DMSO control (%) (murine PGP [2]) | mPGP activity in presence of CP relative to DMSO controls, mPGP on PG (norm.) (murine PGP [2]; CP log[M] -4.39794) | mPGP activity in presence of CP relative to DMSO controls, mPGP on PG (norm.) (murine PGP [2]; CP log[M] -4.69897) | mPGP activity in presence of CP relative to DMSO controls, mPGP on PG (norm.) (murine PGP [2]; CP log[M] -5) | mPGP activity in presence of CP relative to DMSO controls, mPGP on PG (norm.) (murine PGP [2]; CP log[M] -5.30103) | mPGP activity in presence of CP relative to DMSO controls, mPGP on PG (norm.) (murine PGP [2]; CP log[M] -5.60206) | mPGP activity in presence of CP relative to DMSO controls, mPGP on PG (norm.) (murine PGP [2]; CP log[M] -5.90309) | mPGP activity in presence of CP relative to DMSO controls, mPGP on PG (norm.) (murine PGP [2]; CP log[M] -6.20412) | mPGP activity in presence of CP relative to DMSO controls, mPGP on PG (norm.) (murine PGP [2]; CP log[M] -6.50515) | mPGP activity in presence of CP relative to DMSO controls, mPGP on PG (norm.) (murine PGP [2]; CP log[M] -6.80618) | mPGP activity in presence of CP relative to DMSO controls, mPGP on PG (norm.) (murine PGP [2]; CP log[M] -7.10721) | further results
5 | O=C(O)c1cccc(NC(=O)c2ccc(Oc3ccc(C(=O)Nc4cccc(C(=O)O)c4)cc3)cc2)c1 [1C] | – | 57.0652% and 64.9718% and 66.7954% | – | 0.5416 and 0.5073 and 0.4404 | 0.7056 and 0.6098 and 0.6376 | 0.8 and 0.7439 and 0.7317 | 0.9101 and 0.8268 and 0.7615 | 0.8683 and 0.8326 | – | – | – | – | mPGP activity in presence of CP relative to DMSO controls, mPGP on PG (norm.) (murine PGP [2]; CP log[M] -4): 0.1618 and 0.1854 and 0.172; mPGP activity in presence of CP relative to DMSO controls, mPGP on PG (norm.) (murine PGP [2]; CP log[M] -4.12494): 0.2268 and 0.2271; mPGP activity in presence of CP relative to DMSO controls, mPGP on PG (norm.) (murine PGP [2]; CP log[M] -4.30103): 0.3124 and 0.2854 and 0.2844; mPGP activity in presence of CP relative to DMSO controls, mPGP on PG (norm.) (murine PGP [2]; CP log[M] -4.60206): 0.427 and 0.4195 and 0.4312; mPGP activity in presence of CP relative to DMSO controls, mPGP on PG (norm.) (murine PGP [2]; CP log[M] -4.82391): 0.6225 and 0.5805 and 0.5711
6 | O=C(O)c1ccccc1NC(=O)c1ccccc1Oc1ccccc1C(=O)Nc1ccccc1C(=O)O [1D] | – | 14.6739% and 27.6836% and 20.8494% | – | – | – | – | – | – | – | – | – | – | –
7 | O=C(O)c1ccccc1N1C(=O)c2ccc(Oc3ccc4c(c3)C(=O)N(c3ccccc3C(=O)O)C4=O)cc2C1=O [1B] | – | 29.6196% and 23.1638% and 21.6216% | – | – | – | – | – | – | – | – | – | – | –
8 | O=C(O)c1cc2ccccc2c(-c2c(O)c(C(=O)O)cc3ccccc23)c1O [GYJACFGQPFXKCA-UHFFFAOYSA-N] | – | – | – | – | – | – | – | – | – | – | – | – | IC50 (murine PGP [3]): > 50 µM
9 | COc1ccc(C(=O)Nc2ccccc2C(=O)O)cc1 [1E] | – | 33.1522% and 38.1356% and 45.1737% | – | – | – | – | – | – | – | – | – | – | –
